Reference: publication PMC9374667 (Communications Biology, 2022)
“And” between values parts separate entries of the source, which are not always exact repeats. Equal entries are not always repeated.

Biological target: T1, TBK1 (Mus musculus, UniProt Q9WUN2)
T1 sequence (Q9WUN2 1-729): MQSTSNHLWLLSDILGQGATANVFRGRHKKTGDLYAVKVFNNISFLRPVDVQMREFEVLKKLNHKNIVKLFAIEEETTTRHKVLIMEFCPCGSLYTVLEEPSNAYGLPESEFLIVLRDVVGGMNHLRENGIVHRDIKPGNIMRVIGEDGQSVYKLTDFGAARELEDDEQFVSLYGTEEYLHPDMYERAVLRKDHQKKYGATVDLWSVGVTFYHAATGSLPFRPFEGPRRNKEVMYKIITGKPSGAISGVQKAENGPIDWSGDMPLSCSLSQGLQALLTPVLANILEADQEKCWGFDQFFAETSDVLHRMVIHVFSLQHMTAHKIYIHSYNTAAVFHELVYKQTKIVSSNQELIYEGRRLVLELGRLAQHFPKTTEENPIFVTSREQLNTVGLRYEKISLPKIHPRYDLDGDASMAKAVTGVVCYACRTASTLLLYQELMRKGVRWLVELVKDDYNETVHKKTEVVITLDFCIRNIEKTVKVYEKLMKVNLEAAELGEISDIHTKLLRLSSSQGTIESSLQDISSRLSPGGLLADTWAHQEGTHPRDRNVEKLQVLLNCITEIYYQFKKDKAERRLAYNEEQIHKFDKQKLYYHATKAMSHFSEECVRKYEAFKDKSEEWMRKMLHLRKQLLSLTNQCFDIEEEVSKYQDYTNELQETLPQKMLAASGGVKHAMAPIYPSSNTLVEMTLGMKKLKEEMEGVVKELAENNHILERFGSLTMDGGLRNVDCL
Assay: TBK1 kinase activity in TNF-α induced 3T3-L1 adipocytes
Type: cell-based, Murine
Parameters: host or cells: differentiated 3T3-L1 adipocytes (Lipofectamine 2000); TBK1 kinase activity: unit not given here
Settings: for TBK1 kinase activity: Figure 7g, replicates

With `CC(C)Cc1ccc(C(C)C(=O)[O-])cc1.COc1ccc2cc3[n+](cc2c1OC)CCc1cc2c(cc1-3)OCO2.O.O.O.O` [BJ, berberine-ibuprofen] the TBK1 kinase activity (TNF-α(50ng/ml)+3μM BJ) was 30.9473 and 32.9827 and 24.4703 and 29.2741 and 25.0999 and 33.9831, the TBK1 kinase activity (TNF-α(50ng/ml)+10μM BJ) was 22.2193 and 16.8634 and 20.5634 and 20.4771 and 22.3055 and 16.9152 and the “TBK1 expression level / kinase activity” value (TNF-α induced 3T3-L1 adipocytes, BJ treatment for 24 h) was “markedly decreased”.
